Test results from ChEMBL document CHEMBL1135772, “Conformationally constrained nicotines: polycyclic, bridged, and spiro-annulated analogues as novel ligands for the nicotinic acetylcholine receptor” (J Med Chem, 2002).
pKi: −log10 of the molar value.

Target: Neuronal acetylcholine receptor; alpha4/beta2 (Rattus norvegicus, UniProt P09483+P12390)
Assay: Displacement of [3H]cytisine from Nicotinic acetylcholine receptor alpha4-beta2 in rat forebrain

Chain of Neuronal acetylcholine receptor; alpha4/beta2 (P09483 whole entry): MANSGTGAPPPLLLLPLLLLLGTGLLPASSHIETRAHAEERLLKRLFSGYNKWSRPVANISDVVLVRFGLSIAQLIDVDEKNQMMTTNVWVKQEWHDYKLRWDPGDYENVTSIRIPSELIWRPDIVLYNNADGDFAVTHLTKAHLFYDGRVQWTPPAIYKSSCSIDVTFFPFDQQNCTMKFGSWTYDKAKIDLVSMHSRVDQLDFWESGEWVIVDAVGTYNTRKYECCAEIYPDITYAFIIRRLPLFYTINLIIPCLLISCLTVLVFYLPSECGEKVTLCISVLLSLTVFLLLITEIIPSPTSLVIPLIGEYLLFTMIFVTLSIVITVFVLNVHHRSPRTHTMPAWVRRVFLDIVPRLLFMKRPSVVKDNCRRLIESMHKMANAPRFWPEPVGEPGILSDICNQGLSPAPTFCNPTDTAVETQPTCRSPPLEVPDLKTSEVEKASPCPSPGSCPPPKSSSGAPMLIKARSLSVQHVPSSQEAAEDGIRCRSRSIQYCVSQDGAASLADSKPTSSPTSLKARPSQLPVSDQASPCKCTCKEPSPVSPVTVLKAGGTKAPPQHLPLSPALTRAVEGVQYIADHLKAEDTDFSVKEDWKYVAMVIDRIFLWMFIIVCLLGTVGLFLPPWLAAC
Chain of Neuronal acetylcholine receptor; alpha4/beta2 (P12390 whole entry): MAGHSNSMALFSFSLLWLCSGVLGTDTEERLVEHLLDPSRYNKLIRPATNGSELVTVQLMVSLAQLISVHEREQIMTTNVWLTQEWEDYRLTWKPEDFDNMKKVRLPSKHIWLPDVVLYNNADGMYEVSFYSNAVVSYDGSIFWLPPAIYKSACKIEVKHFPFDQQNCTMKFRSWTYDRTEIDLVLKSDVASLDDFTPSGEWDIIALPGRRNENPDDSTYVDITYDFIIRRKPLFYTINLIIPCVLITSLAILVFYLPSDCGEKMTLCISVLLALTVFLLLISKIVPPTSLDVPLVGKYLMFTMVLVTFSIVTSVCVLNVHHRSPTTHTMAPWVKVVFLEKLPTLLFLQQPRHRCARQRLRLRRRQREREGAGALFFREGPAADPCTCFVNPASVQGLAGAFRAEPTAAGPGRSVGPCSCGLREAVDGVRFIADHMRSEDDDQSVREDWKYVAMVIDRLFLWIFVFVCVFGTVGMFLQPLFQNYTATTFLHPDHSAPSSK

SMILES | pKi
c1cc2c(cn1)[C@]1(CCCN1)CC2 | 6.27
c1cncc(C2C3CCN2CC3)c1 (stereo in doubt; 3 (+)) | 8.63
c1cc2c(cn1)C1N3CCCC1(CC3)C2 (stereo in doubt; (+)4b) | 6.50
c1cncc(C2C3CCN2CC3)c1 (single isomer, unassigned; (-)) | 8.72
c1cc2c(cn1)C1N3CCCC1(CC3)C2 (stereo in doubt; (-)4b) | 5.98
c1cc2c(cn1)[C@H]1N3CCC1(CC3)C2 | 6.02
CN1CCC[C@@]12CCc1ccncc12 | 6.83
CN1CCC[C@]12CCc1ccncc12 | 8.32
c1cc2c(cn1)[C@@]1(CCCN1)CC2 | 7.27
